# Laboratory results: patent US11208399B2, “NLRP3 inflammasome inhibitors” (Novartis AG, priority 2019, dated 2021)
# Where a name gives a salt, the structure may show the parent alone.
# Assays:
# [1] = test system: NF-kB-dependent TNF-α secretion; test: TNF-α secretion assay in THP-1 cells (counter screen, HTRF); type: cell-based; details: Homo sapiens, Pam3CSK4-stimulated, 3 hours
# Description: Monocytic THP-1 cells were maintained according to providers' instructions in RPMI media as described above. […] Experimental compounds were prepared and added as described above. TNF-α secretion was triggered by the addition of either 1 μg/mL LPS (Sigma, #L4391) or 100 ng/mL Pam3CSK4 (Invivogen, #tlrl-pms) depending on the experiment, and cells were incubated for 3 hours. 10 μL supernatant was removed, and TNF-α levels were monitored using an HTRF assay (CisBio, #62TNFPEC) according to manufacturers' instructions. Viability was monitored as described above.
# IC50 values were calculated from the plot of percentage of inhibition versus the inhibitor concentration by a logistics fit according to: y=A2+(A1−A2)/(1+(x/IC50)^p) where y is the %-inhibition at the inhibitor concentration, x. A1 is the lowest inhibition value, i.e. 0%, and A2 the maximum inhibition value, i.e. 100%. The exponent, p, is the Hill coefficient. The curve fitting was conducted with an internally developed software suite. […]
# NLRP3 inflammasome = test: IL-1β secretion assay in PMA-differentiated THP-1 cells, nigericin-activated (HTRF); type: cell-based; details: Homo sapiens, 15 μM nigericin, 3 hours, read-out: IL-1β IC50
# Description: 10 μL supernatant was removed, and IL-1p levels were monitored using an HTRF assay (CisBio, #621L1PEC) according to manufacturers' instructions. Viability and pyroptosis was monitored with the addition of PrestoBlue cell viability reagent (Life Technologies, #A13261) directly to the cell culture plate.
# IC50 values were calculated from the plot of percentage of inhibition versus the inhibitor concentration by a logistics fit according to: y=A2+(A1−A2)/(1+(x/IC50)^p) where y is the %-inhibition at the inhibitor concentration, x. A1 is the lowest inhibition value, i.e. 0%, and A2 the maximum inhibition value, i.e. 100%. The exponent, p, is the Hill coefficient. The curve fitting was conducted with an internally developed software suite.
# NLRP3-dependent IL-1β secretion was stimulated in PMA-differentiated THP-1 cells by the addition of nigericin, and cytokines were measured in the […] after 3 hours. As discussed above, activation of the NLRP3 inflammasome requires both an NF-kB-dependent priming step and the addition of a NLRP3 activator.
SMILES,IC50 [1] [nM],IC50 (NLRP3 inflammasome) [nM]
"Cc1ncccc1CNc1ccc(-c2c(O)cc(C(F)(F)F)cc2Cl)nn1 [Ex 34, 3-Chloro-2-(6-(((2-methylpyridin-3-yl)methyl)amino)pyridazin-3-yl)-5-(trifluoromethyl)phenol]",> 100000,496
"Cc1ncccc1CNc1ccc(-c2c(O)cc(Cl)cc2C(F)(F)F)nn1 [Ex 35, 5-Chloro-2-(6-(((2-methylpyridin-3-yl)methyl)amino)pyridazin-3-yl)-3-(trifluoromethyl)phenol]",> 100000,243
"OCCNc1ccc(-c2c(O)cc(C(F)(F)F)cc2Cl)nn1 [Ex 37, 3-Chloro-2-(6-((2-hydroxyethyl)amino)pyridazin-3-yl)-5-(trifluoromethyl)phenol]",> 100000,381
"Cc1cc(C(F)(F)F)cc(O)c1-c1ccc(Nc2cncnc2)nn1 [Ex 43, 3-Methyl-2-(6-(pyrimidin-5-ylamino)pyridazin-3-yl)-5-(trifluoromethyl)phenol]",25000,281
"Cc1cc(C(F)(F)F)cc(O)c1-c1ccc(NC2(C)CCCN(C)C2)nn1 (centres unmarked) [Ex 52, 2-(6-((1,3-Dimethylpiperidin-3-yl)amino)pyridazin-3-yl)-3-methyl-5-(trifluoromethyl)phenol TFA-salt]",> 100000,186
"Cc1cc(-c2c(C)cc(C(F)(F)F)cc2O)nnc1N[C@H]1C[C@@](C)(O)C1 [Ex 54, 2-(6-(((cis)-3-Hydroxy-3-methylcyclobutyl)amino)-5-methylpyridazin-3-yl)-3-methyl-5-(trifluoromethyl)phenol]",35000,11.8
"Cc1cc(N[C@H]2C[C@@](C)(O)C2)nnc1-c1ccc(C(F)(F)F)cc1O [Ex 55, 2-(6-(((cis)-3-Hydroxy-3-methylcyclobutyl)amino)-4-methylpyridazin-3-yl)-5-(trifluoromethyl)phenol]",45000,45.8
"Cc1cc(C(F)(F)F)cc(O)c1-c1cc(C(F)(F)F)c(N[C@H]2C[C@@](C)(O)C2)nn1 [Ex 56, 2-(6-(((cis)-3-Hydroxy-3-methylcyclobutyl)amino)-5-(trifluoromethyl)pyridazin-3-yl)-3-methyl-5-(trifluoromethyl)phenol]",> 100000,8.3
"Cc1cc(C(F)(F)F)cc(O)c1-c1ccc(N[C@H]2CCC[C@H](O)C2)nn1 [Ex 57, 2-(6-(((1S,3S)-3-Hydroxycyclohexyl)amino)pyridazin-3-yl)-3-methyl-5-(trifluoromethyl)phenol]",84000,224
"Cc1cc(C(F)(F)F)cc(O)c1-c1ccc(N[C@@H]2CCC[C@@H](O)C2)nn1 [Ex 58, 2-(6-(((1R,3R)-3-Hydroxycyclohexyl)amino)pyridazin-3-yl)-3-methyl-5-(trifluoromethyl)phenol]",> 100000,58.4
"Cc1cc(C(F)(F)F)cc(O)c1-c1ccc(N[C@@H]2CCCN(C)C2=O)nn1 [Ex 59, (R)-3-((6-(2-Hydroxy-6-methyl-4-(trifluoromethyl)phenyl)pyridazin-3-yl)amino)-1-methylpiperidin-2-one]",> 100000,35.9
"Cc1cc(C(F)(F)F)cc(O)c1-c1ccc(NC[C@@H](F)C(C)(C)O)nn1 [Ex 60, (R)-2-(6-((2-Fluoro-3-hydroxy-3-methylbutyl)amino)pyridazin-3-yl)-3-methyl-5-(trifluoromethyl)phenol]",> 100000,140
"Cc1cc(C(F)(F)F)cc(O)c1-c1ccc(N[C@@H]2CCC(=O)NC2)nn1 [Ex 61, (R)-5-((6-(2-Hydroxy-6-methyl-4-(trifluoromethyl)phenyl)pyridazin-3-yl)amino)piperidin-2-one]",> 100000,65.8
"C[C@]1(O)C[C@@H](Nc2cc(C(F)(F)F)c(-c3ccc(C(F)(F)F)cc3O)nn2)C1 [Ex 66, 2-(6-(((cis)-3-Hydroxy-3-methylcyclobutyl)amino)-4-(trifluoromethyl)pyridazin-3-yl)-5-(trifluoromethyl)phenol]",> 33000,187
"Cc1cc(C(F)(F)F)cc(O)c1-c1ccc(N[C@H]2C[C@](O)(C(F)(F)F)C2)nn1 [Ex 67, 2-(6-(((cis)-3-Hydroxy-3-(trifluoromethyl)cyclobutyl)amino)pyridazin-3-yl)-3-methyl-5-(trifluoromethyl)phenol]",46000,40.1
"Cc1cc(N[C@H]2C[C@@](C)(O)C2)nnc1-c1ccc(Cl)cc1O [Ex 68, 5-Chloro-2-(6-(((cis)-3-hydroxy-3-methylcyclobutyl)amino)-4-methylpyridazin-3-yl)phenol]",> 100000,89.3
"C[C@]1(O)C[C@@H](Nc2cc(C(F)(F)F)c(-c3ccc(Cl)cc3O)nn2)C1 [Ex 69, 5-Chloro-2-(6-(((cis)-3-hydroxy-3-methylcyclobutyl)amino)-4-(trifluoromethyl)pyridazin-3-yl)phenol]",> 33000,431
"Cc1cc(-c2c(C)cc(C(F)(F)F)cc2O)nnc1NCC(C)(C)O [Ex 72, 2-(6-((2-Hydroxy-2-methylpropyl)amino)-5-methylpyridazin-3-yl)-3-methyl-5-(trifluoromethyl)phenol]",> 100000,44.9
"Cc1cc(NCC(C)(C)O)nnc1-c1c(C)cc(C(F)(F)F)cc1O [Ex 73, 2-(6-((2-Hydroxy-2-methylpropyl)amino)-4-methylpyridazin-3-yl)-3-methyl-5-(trifluoromethyl)phenol]",55000,154
"Cc1cc(C(F)(F)F)cc(O)c1-c1ccc(NC[C@@H]2C[C@H](F)CN2)nn1 [Ex 75, 2-(6-((((2S,4S)-4-Fluoropyrrolidin-2-yl)methyl)amino)pyridazin-3-yl)-3-methyl-5-(trifluoromethyl)phenol]",> 100000,18.3
"Cc1cc(C(F)(F)F)cc(O)c1-c1ccc(NC[C@@H]2C[C@@H](F)CN2)nn1 [Ex 76, 2-(6-((((2S,4R)-4-Fluoropyrrolidin-2-yl)methyl)amino)pyridazin-3-yl)-3-methyl-5-(trifluoromethyl)phenol]",> 100000,89.7
"Cc1cc(C(F)(F)F)cc(O)c1-c1ccc(NC[C@](C)(O)C(F)(F)F)nn1 [Ex 78, (S)-3-Methyl-2-(6-((3,3,3-trifluoro-2-hydroxy-2-methylpropyl)amino)pyridazin-3-yl)-5-(trifluoromethyl)phenol HCl-salt]",> 100000,198
"Cc1cc(C(F)(F)F)cc(O)c1-c1ccc(NC(C)(C)CO)nn1 [Ex 79, 2-(6-((1-Hydroxy-2-methylpropan-2-yl)amino)pyridazin-3-yl)-3-methyl-5-(trifluoromethyl)phenol]",> 100000,370
"Cc1cc(N[C@H]2C[C@@](C)(O)C2)nnc1-c1ccc(OC(F)(F)F)cc1O [Ex 81, 2-(6-(((cis)-3-Hydroxy-3-methylcyclobutyl)amino)-4-methylpyridazin-3-yl)-5-(trifluoromethoxy)phenol]",> 100000,130
"Cc1cc(C(F)(F)F)cc(O)c1-c1ccc(N[C@@H]2CCCN3CCC[C@H]23)nn1 [Ex 83a, 3-Methyl-2-(6-(((8R,8aR)-octahydroindolizin-8-yl)amino)pyridazin-3-yl)-5-(trifluoromethyl) phenol]",> 100000,0.8
